Patent US7605176B2 (Boehringer Ingelheim International GmbH, priority 2004, dated 2009)
pIC50: −log10 of the molar value.

Molecular target: T1, hMCH-1R (Homo sapiens, UniProt Q99705)
T1 construct: expressed in transfected cells
Test: MCH-1 receptor binding test (125I-MCH binding to membranes of hMCH-1R transfected CHO/Galpha16 cells)
Conditions: competition with 100 pM 125I-MCH, membranes of CHO/Galpha16 cells stably transfected with hMCH-1R
Experimental: Membranes from CHO/Galpha16 cells stably transfected with human hMCH-1R are resuspended using a syringe (needle 0.6×25 mm) and diluted in test buffer (50 mM HEPES, 10 mM MgCl2, 2 mM EGTA, pH 7.00; 0.1% bovine serum albumin (protease-free), 0.021% bacitracin, 1 μg/mL aprotinin, 1 μg/mL leupeptin, and 1 μM phosphoramidone) to a concentration of 5 to 15 μg/mL.
After the incubation the reaction is filtered using a cell harvester through 0.5% PEI treated fiberglass filters (GF/B, Unifilter Packard). The membrane-bound radioactivity retained on the filter is then determined after the addition of scintillator substance (Packard Microscint 20) in a measuring device (TopCount of Packard).
The analysis of the concentration binding curve is carried out on the assumption of one receptor binding site.

T1 sequence (Q99705 whole entry): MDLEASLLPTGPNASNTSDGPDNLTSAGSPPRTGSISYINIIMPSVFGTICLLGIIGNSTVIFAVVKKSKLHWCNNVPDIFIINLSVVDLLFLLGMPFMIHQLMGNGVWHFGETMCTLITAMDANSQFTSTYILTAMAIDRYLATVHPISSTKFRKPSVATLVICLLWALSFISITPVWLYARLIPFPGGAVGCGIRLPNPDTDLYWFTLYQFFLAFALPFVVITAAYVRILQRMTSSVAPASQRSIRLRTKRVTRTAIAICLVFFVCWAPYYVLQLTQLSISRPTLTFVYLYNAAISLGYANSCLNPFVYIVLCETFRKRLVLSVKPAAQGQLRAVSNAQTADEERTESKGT

Row | pIC50 | SMILES
1 | 7.20 | O=C(CC(=O)c1ccc(-c2ccccc2)cc1)NCCc1ccc(CN2CCCC2)cc1 [Example 5.1]
2 | 7.46 | CCN(CC)CCOc1ccc(NC(=O)CC(=O)c2ccc(C(F)(F)F)cc2Cl)cc1Cl [Example 7.1]

System: not given
Test: not given
Conditions: not given

Row | melting point | SMILES
3 | 135 to 139 °C | CC1CCN(CCOc2ccc(NC(=O)CC(=O)c3ccc(-c4ccccc4)cc3)cc2Cl)CC1 [Example 1, 3-biphenyl-4-yl-N-{3-chloro-4-[2-(4-methylpiperidin-1-yl)ethoxy]phenyl}-3-oxopropionamide]
4 | 131 to 135 °C | COC(=O)c1cc(NC(=O)CC(=O)c2ccc(-c3ccccc3)cc2)ccc1OCCN1CCCC1 [Example 1.9, methyl 5-(3-biphenyl-4-yl-3-oxopropionylamino)-2-(2-pyrrolidin-1-ylethoxy)benzoate]
5 | 121 to 125 °C | O=C(CC(=O)c1ccc(-c2ccccc2)cc1)NCCc1ccc(CN2CCCC2)cc1 [Example 5.1]
6 | 148 to 151 °C | CCN(CC)CCOc1ccc(NC(=O)CC(=O)c2ccc(-c3ccccc3)cc2)cc1Cl [Example 7, 3-biphenyl-4-yl-N-[3-chloro-4-(2-diethylaminoethoxy)phenyl]-3-oxopropionamide]
7 | 236 to 240 °C | O=C(CC(=O)c1ccc(-c2ccccc2)cc1)Nc1ccc(OCCN2CCCC2)c(C(=O)O)c1 [Example 8, 5-(3-biphenyl-4-yl-3-oxopropionylamino)-2-(2-pyrrolidin-1-ylethoxy)benzoic acid]
